From patent US11666577B2 (National Institute of Biological Sciences, Beijing, priority 2018, dated 2023)
Like-named read-outs stand apart in the source and are kept apart here.

What was measured:
pMLKL = experiment: Immunofluorescence staining of pMLKL in HT-29 cells; type: cell-based, human; settings: monoclonal anti-pMLKL antibody, Experimental-section numbering
Description: This is a crucial step in the translocation of MLKL from the cytoplasm to the cell membrane, where it mediates ion influx and/or causes the disruption of cell structures.^[5] To evaluate the mechanism of this series of compounds on MLKL, we detected the status (state of oligomerization and phosphorylation) of MLKL under TSZ stimulation in the presence of compound 12 or 15. […] Next, we evaluated the effects of MLKL inhibitors on the translocation of MLKL from the cytoplasm to the cell membrane. HT-29 cells were treated with TSZ in the presence of RIPA-56, NSA, compound 12, or compound 15 for 6 h. The proteins from cell lysates were separated and the soluble phase and membrane phase were analyzed separately with anti-MLKL and anti-pMLKL antibodies. […] We also performed immunofluorescence staining in HT-29 cells using a monoclonal anti-pMLKL antibody. After TSZ stimulation, large, bright-green fluorescent dots (pMLKL) were present in the plasma membrane. […] Sun, X. Wang, Trends Biochem. Sci 2014, 39, 587-593; bM. Pasparakis, P. Vandenabeele, Nature 2015, 517, 311-320. • 2. N. Holler, R. Zaru, O. Micheau, M. Thome, A. Attinger, S. Valitutti, J.-L. Bodmer, P. Schneider, B. Seed, J. Tschopp, Nat. Immunol. 2000, 1, 489-495. • 3. aS. He, L. Wang, L. Miao, T. Wang, F. Du, L. Zhao, X. Wang, Cell 2009, 137, 1100-1111; bD.-W. Zhang, J. Shao, J. Lin, N. Zhang, B.-J. Lu, S.-C. Lin, M.-Q. Dong, J. Han, Science 2009, 325, 332-336. • 4. L. Sun, H. et al. Cell 2012, 148, 213-227. • 5. aH. Wang, L. Sun, L. Su, J. Rizo, L. Liu, L.-F. Wang, F.-S. Wang, X. Wang, Mol. Cell 2014, 54, 133-146; bZ. Cai, S. Jitkaew, J. Zhao, H.-C. Chiang, S. Choksi, J. Liu, Y. Ward, L.-g. Wu, Z.-G. Liu, Nat. Cell Biol. 2014, 16, 55-65. • 6. aJ. Wu, et al., Cell Res. 2013, 23, 994-1006; bD. Ofengeim, Y. Ito, A. Najafov, Y. Zhang, B. Shan, J. P. DeWitt, J. Ye, X. Zhang, A. Chang, H. Vakifahmetoglu-Norberg, Cell reports 2015, 10, 1836-1849; cM. Pierdomenico, A. Negroni, L. Stronati, R. Vitali, E. Prete, J. Bertin, P. J. Gough, M. Aloi, S. Cucchiara, Am J. Gastroenterol. 2014, 109, 279-287. • 7. […]

HT-29 cells = experiment: Necroptosis assay (TNF-α/Smac mimetic/z-VAD, TSZ-induced) in HT-29 cells; type: cell-based, human
In short: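 HT-29 cells were challenged with 20 ng/ml TNF-α, 100 nM Smac mimetic and 20 mM z-VAD while compound was added at the same time (library screen at 10 mM). After 24 h, viability was read as ATP luminescence (CellTiter-Glo) and normalized to DMSO-treated cells; values are means ± SD of duplicates.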

[1] = Series 1 (Table 1) compounds 147-176, activity extrapolated, read-out: Series 1 compound necroptosis activity (extrapolated)
[2] = Homo sapiens, Series 2 (Table 2) compounds, HT-29 necroptosis assay, read-out: Series 2 compound necroptosis activity
[3] = Series 1 (Table 1) compounds 1-146, HT-29 cells, TNF-α/Smac mimetic/z-VAD, 24 hrs, cell viability by ATP level, read-out: Series 1 compound necroptosis activity
[4] = Homo sapiens, Series 1 (Table 1) compounds 1-146, HT-29 cells, TNF-α/Smac mimetic/z-VAD, 24 hrs, cell viability by ATP level, read-out: Series 1 compound necroptosis activity
[5] = Series 1 (Table 1) compounds, HT-29 cells, TNF-α/Smac mimetic/z-VAD, 24 hrs, cell viability by ATP level, read-out: Series 1 compound necroptosis activity

In the case of `CCC(C)(C)C(=O)N(O)Cc1ccccc1` [RIPA-56], the “pMLKL immunofluorescence after TSZ stimulation” value (pMLKL) is reported as “blocked the phosphorylation of MLKL completely”.

Molecule `Cn1c(=O)c2c(nc(S(C)(=O)=O)n2C)n(CC#Cc2cccc(NCc3ccccc3)c2)c1=O` [Compound 166] has an EC50 (HT-29 cells; [1]) of 1 to 1000 µM.

In the case of `Cn1c(=O)c2c(nc(S(=O)(=O)CC3CC3)n2C)n(CC#Cc2ccnc(NC(=O)C3CC3)c2)c1=O` [Compound 31], the EC50 (HT-29 cells; [2]) is reported as 0.001 to 0.1 µM.

Molecule `Cn1c(S(C)(=O)=O)nc2c1c(=O)[nH]c(=O)n2C` [Compound 88, 3,7-dimethyl-8-(methylsulfonyl)-1H-purine-2,6(3H,7H)-dione] has an EC50 (HT-29 cells; [3]) of 1 to 1000 µM.

`Cn1c(=O)c2c(nc(S(=O)(=O)CC3CC3)n2C)n(Cc2cccnc2)c1=O` [Compound 143, 8-((cyclopropylmethyl)sulfonyl)-1,7-dimethyl-3-(pyridin-3-ylmethyl)-1H-purine-2,6(3H,7H)-dione] was tested, and the EC50 (HT-29 cells; [3]) was 1 to 1000 µM.

With `CN(C)S(=O)(=O)c1nc2c(c(=O)n(C)c(=O)n2CC#Cc2cccc(O)c2)n1C` [Compound 158] the EC50 (HT-29 cells; [1]) was 1 to 1000 µM.

In the case of `Cn1c(=O)c2c(nc(S(=O)(=O)CC3CC3)n2C)n(C)c1=O` [Compound 13, 8-(cyclopropylmethylsulfonyl)-1,3,7-trimethyl-1H-purine-2,6(3H,7H)-dione], the EC50 (HT-29 cells; [4]) is reported as 1 to 100 µM.

With `CCCS(=O)(=O)c1nc2c(c(=O)n(C)c(=O)n2C)n1CC` [Compound 80, 7-ethyl-1,3-dimethyl-8-(propylsulfonyl)-1H-purine-2,6(3H,7H)-dione] the EC50 (HT-29 cells; [3]) was 1 to 1000 µM.

In the case of `COCCOCCNc1cccc(C#CCn2c(=O)n(C)c(=O)c3c2nc(S(C)(=O)=O)n3C)c1` [Compound 12], the EC50 (HT-29 cells; [2]) is reported as 0.001 to 0.1 µM.

Work on `Cn1c(=O)c2c(nc(S(C)(=O)=O)n2C)n(CC#Cc2ccc3cc[nH]c3c2)c1=O` [Compound 163] yielded an EC50 (HT-29 cells; [1]) of 1 to 1000 µM.

`Cn1c(=O)c2c(nc(S(=O)(=O)CC3CC3)n2C)n(CC#Cc2cccc([N+](=O)[O-])c2)c1=O` [Compound 125, 8-((cyclopropylmethyl)sulfonyl)-1,7-dimethyl-3-(3-(3-nitrophenyl)prop-2-yn-1-yl)-3,7-dihydro-1H-purine-2,6-dione] was tested, and the EC50 (HT-29 cells; [5]) was 0.001 to 1 µM.

`Cn1c(=O)c2c(nc(S(=O)(=O)CC3CC3)n2C)n(CC#Cc2ccc(Cl)cc2)c1=O` [Compound 121, 3-(3-(4-chlorophenyl)prop-2-yn-1-yl)-8-((cyclopropylmethyl)sulfonyl)-1,7-dimethyl-3,7-dihydro-1H-purine-2,6-dione] was tested, and the EC50 (HT-29 cells; [5]) was 0.001 to 1 µM.

Work on `CCn1c(S(=O)(=O)CC2CC2)nc2c1c(=O)n(C)c(=O)n2C` [Compound 82] yielded an EC50 (HT-29 cells; [4]) of 1 to 100 µM.

`CNc1cc(C#CCn2c(=O)n(C)c(=O)c3c2nc(S(C)(=O)=O)n3C)ccc1N1CCN(C)CC1` [Compound 175] was tested, and the EC50 (HT-29 cells; [1]) was 1 to 1000 µM.

Molecule `CC(C)Nc1cc(C#CCn2c(=O)n(C)c(=O)c3c2nc(S(=O)(=O)CC2CC2)n3C)ccn1` [Compound 35] has an EC50 (HT-29 cells; [2]) of 0.001 to 0.1 µM.

With `COc1c(Cl)cccc1CS(=O)(=O)c1nc2c(c(=O)n(C)c(=O)n2C)n1C` [Compound 63, 8-(3-chloro-2-methoxybenzylsulfonyl)-1,3,7-trimethyl-1H-purine-2,6(3H,7H)-dione] the EC50 (HT-29 cells; [3]) was 1 to 1000 µM.

`Cn1c(=O)c2c(nc(S(=O)(=O)CC3CC3)n2C)n(CC#Cc2cc(NC(=O)CN3CCOCC3)cc(NC(=O)CN3CCOCC3)c2)c1=O` [Compound 28] showed an EC50 (HT-29 cells; [2]) of 0.001 to 0.1 µM.

`Cn1c(=O)c2c(nc(S(=O)(=O)Cc3cccc(C#N)c3)n2C)n(C)c1=O` [Compound 43, 3-((1,3,7-trimethyl-2,6-dioxo-2,3,6,7-tetrahydro-1H-purin-8-ylsulfonyl)methyl)benzonitrile] showed an EC50 (HT-29 cells; [3]) of 1 to 1000 µM.

Molecule `CN(C)CCS(=O)(=O)c1nc2c(c(=O)n(C)c(=O)n2CC#Cc2cccc(O)c2)n1C` [Compound 152] has an EC50 (HT-29 cells; [1]) of 1 to 1000 µM.

Work on `Cn1c(=O)c2c(nc(S(C)(=O)=O)n2CC(N)=O)n(C)c1=O` [Compound 86, 2-(1,3-dimethyl-8-(methylsulfonyl)-2,6-dioxo-2,3-dihydro-1H-purin-7(6H)-yl)acetamide] yielded an EC50 (HT-29 cells; [3]) of 1 to 1000 µM.

In the case of `CCSc1nc2c(c(=O)n(C)c(=O)n2C)n1CC` [Compound 75, 7-ethyl-8-(ethylthio)-1,3-dimethyl-1H-purine-2,6(3H,7H)-dione], the EC50 (HT-29 cells; [3]) is reported as 1 to 1000 µM.

Work on `Cn1c(=O)c2c(nc(S(C)(=O)=O)n2C)n(CC#Cc2ccc3c(c2)NCC3)c1=O` [Compound 171] yielded an EC50 (HT-29 cells; [1]) of 1 to 1000 µM.

`Cn1c(=O)c2c(nc(S(=O)(=O)Cc3ccc(C(N)=O)cc3)n2C)n(C)c1=O` [Compound 47, 4-((1,3,7-trimethyl-2,6-dioxo-2,3,6,7-tetrahydro-1H-purin-8-ylsulfonyl)methyl)benzamide] showed an EC50 (HT-29 cells; [3]) of 1 to 1000 µM.

`CNc1cc(C#CCn2c(=O)n(C)c(=O)c3c2nc(S(=O)(=O)Cc2cc(OC)ccc2OC)n3C)ccn1` [Compound 127, 8-((2,5-dimethoxybenzyl)sulfonyl)-1,7-dimethyl-3-(3-(2-(methylamino)pyridin-4-yl)prop-2-yn-1-yl)-3,7-dihydro-1H-purine-2,6-dione] showed an EC50 (HT-29 cells; [4]) of 1 to 10 µM.

`Cn1c(=O)c2c(nc(S(C)(=O)=O)n2C)n(CC#Cc2cccc(NC(=O)CN3CCOCC3)c2)c1=O` [Compound 17] gave an EC50 (HT-29 cells; [2]) of 0.001 to 0.1 µM.

`COc1cc(CS(=O)(=O)c2nc3c(c(=O)n(C)c(=O)n3C)n2C)c(OC)cc1F` [Compound 71, 8-(4-fluoro-2,5-dimethoxybenzylsulfonyl)-1,3,7-trimethyl-1H-purine-2,6(3H,7H)-dione] gave an EC50 (HT-29 cells; [3]) of 1 to 1000 µM.

Work on `CCn1c(S(=O)(=O)CC)nc2c1c(=O)n(C)c(=O)n2C` [Compound 77, 7-ethyl-8-(ethylsulfonyl)-1,3-dimethyl-1H-purine-2,6(3H,7H)-dione] yielded an EC50 (HT-29 cells; [3]) of 1 to 1000 µM.

`Cn1c(=O)c2c(nc(S(C)(=O)=O)n2C)n(CC2CC2)c1=O` [Compound 102, 3-(cyclopropylmethyl)-1,7-dimethyl-8-(methylsulfonyl)-1H-purine-2,6(3H,7H)-dione] gave an EC50 (HT-29 cells; [4]) of 1 to 100 µM.

In the case of `Cn1c(=O)c2c(nc(S(=O)(=O)CCc3ccccc3)n2C)n(CC#Cc2ccc3nc[nH]c3c2)c1=O` [Compound 164], the EC50 (HT-29 cells; [1]) is reported as 1 to 1000 µM.

`Cn1c(=O)c2c(nc(S(C)(=O)=O)n2C)n(CC#Cc2cc(NC(=O)C3CC3)nc(C(F)(F)F)c2)c1=O` [Compound 43] was tested, and the EC50 (HT-29 cells; [2]) was 0.001 to 0.1 µM.

With `Cn1c(=O)c2c(nc(S(=O)(=O)CCN)n2C)n(CC#Cc2cccc(O)c2)c1=O` [Compound 150] the EC50 (HT-29 cells; [1]) was 1 to 1000 µM.

For `Cn1c(=O)c2c(nc([S+](C)[O-])n2C)n(CC#Cc2cc(NC(=O)C3CC3)nc(C(F)(F)F)c2)c1=O` (stereo not drawn) [Compound 48], the EC50 (HT-29 cells; [2]) was 0.1 to 10 µM.

`Cn1c(=O)c2c(nc(S(=O)(=O)CC3CC3)n2C)n(CC#Cc2ccc(Br)cc2)c1=O` [Compound 122, 3-(3-(4-bromophenyl)prop-2-yn-1-yl)-8-((cyclopropylmethyl)sulfonyl)-1,7-dimethyl-3,7-dihydro-1H-purine-2,6-dione] was tested, and the EC50 (HT-29 cells; [5]) was 0.001 to 1 µM.
